Source: publication PMC10119423, “From PERK to RIPK1: Design, synthesis and evaluation of novel potent and selective necroptosis inhibitors” (Frontiers in Chemistry, 2023)

What was measured:
HT-29 = test: Necroptosis (hTNF + TAK1i + zVAD.fmk) in HT-29 cells, Sytox Green; conditions: Homo sapiens, HT-29, read-out: Necroptosis hTNF + TAK1i + zVAD.fmk HT-29 IC50
Protocol: In brief, the cells were seeded in duplicate at 10,000 cells per well in a 96-well adherent plate and incubated overnight at 37°C with 5% CO2. […] All the compound stock solutions were prepared in DMSO at 200 µM concentration. After stimulating the cells with human TNF at 20 ng/mL the plate was transferred to the incubator. Sytox Green intensity was measured in function of time at 0, 14 and 24 h with an excitation filter of 485 nm, an emission filter of 520 nm. The cell death was calculated by subtracting the background fluorescence from the induced Sytox Green fluorescence and by dividing the obtained result by the maximal fluorescence (minus the background fluorescence) obtained by permeabilization of the cells by using Triton X-100 at a final concentration of 0.1%. Curves were plotted in GraphPad 9 for the IC50 calculation.
To induce necroptosis in human colorectal adenocarcinoma cell line (HT-29) together with hTNF and the pan caspases inhibitor zVAD.fmk, TAK1 inhibitor is also needed.

PERK = target: T1, PERK (Mus musculus, UniProt Q9Z2B5); test: PERK autophosphorylation by Western blot in tunicamycin-stimulated immortalized MEFs; assay type: cell-based
T1 construct: Immortalized MEFs were pretreated for 30 min with increasing concentrations of GSK’157 and the indicated compounds and stimulated with tunicamycin; endogenous in cells; host or cells: immortalized mouse embryonic fibroblasts (MEFs, C57Bl6/J)
T1 sequence (Q9Z2B5 29-1114): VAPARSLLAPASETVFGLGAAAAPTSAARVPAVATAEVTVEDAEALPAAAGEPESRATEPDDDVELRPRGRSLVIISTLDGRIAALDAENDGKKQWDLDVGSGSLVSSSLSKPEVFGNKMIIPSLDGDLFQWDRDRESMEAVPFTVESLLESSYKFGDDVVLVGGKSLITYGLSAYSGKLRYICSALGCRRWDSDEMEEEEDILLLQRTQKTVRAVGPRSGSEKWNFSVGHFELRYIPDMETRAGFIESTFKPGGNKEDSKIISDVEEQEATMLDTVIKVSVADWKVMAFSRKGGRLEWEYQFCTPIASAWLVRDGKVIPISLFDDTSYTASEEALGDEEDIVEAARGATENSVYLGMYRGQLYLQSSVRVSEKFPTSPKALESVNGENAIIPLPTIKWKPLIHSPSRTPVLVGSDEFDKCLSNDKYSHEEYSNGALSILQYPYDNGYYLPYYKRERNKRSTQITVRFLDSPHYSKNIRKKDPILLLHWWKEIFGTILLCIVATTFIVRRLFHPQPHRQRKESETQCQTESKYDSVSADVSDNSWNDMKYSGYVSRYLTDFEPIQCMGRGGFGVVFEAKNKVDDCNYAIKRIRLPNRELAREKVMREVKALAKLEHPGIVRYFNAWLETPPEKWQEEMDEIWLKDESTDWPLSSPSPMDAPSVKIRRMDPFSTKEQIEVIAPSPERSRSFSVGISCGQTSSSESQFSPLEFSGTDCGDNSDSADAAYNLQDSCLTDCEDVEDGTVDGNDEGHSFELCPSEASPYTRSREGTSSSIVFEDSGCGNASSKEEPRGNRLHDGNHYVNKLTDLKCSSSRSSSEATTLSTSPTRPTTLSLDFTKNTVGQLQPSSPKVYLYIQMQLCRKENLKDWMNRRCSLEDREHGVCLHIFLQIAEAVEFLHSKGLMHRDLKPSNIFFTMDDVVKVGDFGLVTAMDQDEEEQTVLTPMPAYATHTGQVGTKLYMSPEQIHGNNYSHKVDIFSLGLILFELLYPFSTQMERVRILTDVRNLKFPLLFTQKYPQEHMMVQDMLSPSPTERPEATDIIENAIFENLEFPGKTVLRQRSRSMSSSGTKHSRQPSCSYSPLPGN
Protocol: MEFs were seeded in 6-well plates at a density of 300.000 cells/well in 2 mL. The next day, the cells were suspended in 1 mL of medium and pre-treated for 30 min with the indicated compounds at 1/5 dilutions series for PERK ranging from 5 to 0.04 µM and 1 μg/mL of Tm followed by 4 h treatment with 20 ng/mL of hTNF. For RIPK1, the cells were pre-treated at 1/10 dilutions series ranging from 10 to 0.01 nM, 50 µM zVAD.fmk and 1 µM TAKi before stimulation with 20 ng/mL of hTNF for 2.5 h. Then, the cells were washed two times with 1 mL of ice-cold PBS before lysis in 0.2 mL of Laemmli buffer 1x (10% (w/v) SDS, 50% glycerol, 0.5% bromophenol blue, 250 mM Tris–HCl pH 6.8) and 250 mM of dithiothreitol (DTT). The cell lysate was then collected and boiled at 95 °C for 10min and stored at −20°C. Proteins expression was later monitored by immunoblotting.
Their activities were evaluated by comparing the intensity of the signal to unstimulated MEFs (considered as zero phosphorylation) and Tunicamycin stimulated cells (considered as 100% PERK phosphorylation). […] The MEFs were pre-incubated for 30 min with the different compounds (0.01 nM–1000 nM) and then stimulated with human TNF (20 ng/mL) for 2.5 h. Similar to the PERK assessment, IC50 values for RIPK1 inhibition were estimated as a range of concentrations, and are reported in Table 1.

Cn1cc(-c2ccc3c(c2F)CCN3C(=O)Cc2ccc(C(F)(F)F)cn2)c2c(N)ncnc21 [Compound 22]
IC50 (HT-29): 6.5 nM | PERK inhibition at the tested concentrations (in words) (PERK; MEFs, Western blot, 0.04, 0.2, 1 and 5 µM, highest concentration tested 5 µM): no PERK inhibition | IC50 (PERK; immortalized MEFs, 30 min pretreatment, tunicamycin 1 μg/ml for 4 h, PERK autophosphorylation, read-out: PERK inhibition (IC50 estimated from a Western blot)): > 5000 nM
